In assay [1] the test system is HepG2. In words: Inhibition of lipid accumulation in human HepG2 cells at 20 uM incubated for 24 hrs by Oil Red O staining analysis relative to oleic acid. It counts as functional.
Assay [2] concerns HepG2. Put plainly: Increase in glycerol release in human HepG2 cells at 25 uM incubated for 24 hrs by microplate reader analysis. Format: functional, cell-based.
A short description of assay [3]: Reduction in melanin production in mouse Melan-a cells at 5 uM measured after 72 hrs by microplate reader. Format: functional.
For assay [4], the system named is Melan-a. In words: Reduction in MITF protein expression in mouse Melan-a cells at 5 uM measured after 72 hrs by Western blot analysis. It counts as functional, cell-based.
For assay [5], the system named is Melan-a. Put plainly: Reduction in tyrosinase protein expression in mouse Melan-a cells at 5 uM measured after 72 hrs by Western blot analysis. It counts as functional, cell-based. A general note: Immunoblotting shows a protein as a band on a membrane.
In assay [6] the test system is Melan-a. In words: Reduction in TRP1 protein expression in mouse Melan-a cells at 5 uM measured after 72 hrs by Western blot analysis. Format: functional, cell-based.
The target of assay [7] is T1, Tyrosinase (Agaricus bisporus) (UniProt O42713).
T1 sequence (whole entry): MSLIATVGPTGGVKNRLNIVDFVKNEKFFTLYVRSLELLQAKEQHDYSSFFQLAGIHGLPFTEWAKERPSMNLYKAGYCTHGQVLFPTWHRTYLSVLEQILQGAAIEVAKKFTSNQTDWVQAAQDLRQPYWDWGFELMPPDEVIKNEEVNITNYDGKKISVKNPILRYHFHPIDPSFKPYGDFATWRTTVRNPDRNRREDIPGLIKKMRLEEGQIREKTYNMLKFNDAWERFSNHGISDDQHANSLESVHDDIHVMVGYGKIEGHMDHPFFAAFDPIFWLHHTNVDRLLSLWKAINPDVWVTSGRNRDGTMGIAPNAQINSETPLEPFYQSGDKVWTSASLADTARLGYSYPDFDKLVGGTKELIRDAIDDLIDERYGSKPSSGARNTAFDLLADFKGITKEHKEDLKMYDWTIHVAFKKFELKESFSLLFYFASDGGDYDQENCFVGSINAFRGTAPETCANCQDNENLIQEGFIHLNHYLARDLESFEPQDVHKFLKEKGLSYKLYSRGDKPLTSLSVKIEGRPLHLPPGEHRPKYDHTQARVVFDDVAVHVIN
In words: Inhibition of mushroom tyrosinase activity at 5 uM measured after 1 hr by microplate reader analysis.

Usually inhibition stands for the relative decrease from the control value, in per cent.

The source made the active and inactive calls. The rule behind the calls is not given here.

`C/C(=C\CC1=C[C@@H]2C(=O)C(O)=C[C@]12C(C)C)CO`: testing at 20 µM in the assay on HepG2 [1] gave an inhibition of 29%.
The molecule `C/C(=C\C[C@]12C=C[C@@]1(O)C(=O)C=C2C(C)C)CO` came in with an inhibition at 20 µM with HepG2 [1] of 29%. Besides, in the assay with HepG2 [2], the outcome was Active.
On to `C/C(=C\C[C@@]12C=C[C@]1(O)C(=O)C=C2C(C)C)CO`, for which the inhibition at 20 µM in the assay on HepG2 [1] was found to be 29%. In addition, the outcome with HepG2 [2] was Active.
Regarding `C/C(=C\Cc1ccc(=O)c(O)cc1C(C)C)CO`, testing at 5 µM in assay [3] gave an inhibition of 10%. In addition, the outcome in the assay with Melan-a [4], with Melan-a [5], in the assay with Melan-a [6] and in the assay on HepG2 [2] was Active. The inhibition at 20 µM with HepG2 [1] stood at 29%. Also, the inhibition result in assay [7] is “Active”.
For the molecule `C/C(=C\CC1=C[C@H]2C(=O)C(O)=C[C@@]12C(C)C)CO`, in the assay on HepG2 [1], the inhibition at 20 µM was 29%.

The record behind these values is ChEMBL document CHEMBL4842334, “Tropolone-Bearing Sesquiterpenes from Juniperus chinensis: Structures, Photochemistry and Bioactivity” (2021).
